In publication PMC5908784, “Extracellular loops 2 and 3 of the calcitonin receptor selectively modify agonist binding and efficacy” (Biochemical Pharmacology, 2018):
Numbering of substitutions follows the chain as printed. Where no end group is shown, it is not given here.

How the values were obtained:
Experiment in all cases: Homologous whole cell competition binding
Conditions in all cases: homologous competition of 125I-sCT(8-32), whole cells, mean ± S.E.M., SEM
hCTR E294A = biological target: T1, hCTR E294A (Homo sapiens, UniProt P30988, E294A)
T1 construct: c-Myc (N); expressed in transfected cells
T1 sequence (P30988 25-474 E294A): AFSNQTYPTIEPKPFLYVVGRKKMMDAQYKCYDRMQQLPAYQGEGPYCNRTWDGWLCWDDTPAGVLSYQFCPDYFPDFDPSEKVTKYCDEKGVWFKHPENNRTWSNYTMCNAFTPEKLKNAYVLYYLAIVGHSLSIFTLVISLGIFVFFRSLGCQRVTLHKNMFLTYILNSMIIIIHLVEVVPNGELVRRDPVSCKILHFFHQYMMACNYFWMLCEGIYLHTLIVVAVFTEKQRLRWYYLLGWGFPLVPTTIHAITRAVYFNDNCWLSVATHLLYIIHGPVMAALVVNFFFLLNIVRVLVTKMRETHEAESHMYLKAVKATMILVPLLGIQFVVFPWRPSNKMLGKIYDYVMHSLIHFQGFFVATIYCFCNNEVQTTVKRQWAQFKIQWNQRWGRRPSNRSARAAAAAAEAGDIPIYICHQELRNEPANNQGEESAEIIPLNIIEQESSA
Procedure: (§1) Homologous radioligand competition was performed on 2.5 × 10^4 cells/well seeded into 96-well trays and cultured overnight. Cells were incubated overnight at 4 °C with two concentrations of ^125I-sCT(8-32) (between 25 and 100 pM; specific activity, 2000 Ci/mmol^9) and serial dilutions of non-iodinated sCT(8-32). Non-bound ligand was removed and bound ligand activity was measured using a γ counter (Wallac Wizard 1470 Gamma Counter, Perkin Elmer, 80% counter efficiency). Values were normalized against non-specific binding (0%) defined by the presence of 1 μM of unlabelled sCT(8-32), and total ligand bound in absence of competing sCT(8-32) (100%).
(§2) IC50 and Bmax values were estimated from competitive inhibition of ^125I-sCT(8-32) binding using a 3-parameter logistic equation (log(inhibitor versus response)) in Prism (v7; Graphpad). Data were corrected for radioligand occupancy using the Cheng-Prusoff equation in Prism; as such data are reported as pKi. Emax and EC50 were estimated from concentration-response curves using with a 3-parameter logistic equation in Prism (v7). These values are a composite of functional affinity, efficacy and stimulus response coupling. The Black and Leff operational model of agonism was applied to separate effects on pathway-specific efficacy (τ) from those that modify ligand functional affinity (pKA). Derived τ values were normalized to experimentally determined levels of cell surface expression to provide a measure of efficacy (τc) that is independent of affinity and altered cell surface receptor expression. pKi, pKA and log τc values for mutant receptors were statistically compared to those of the WT receptor using a one-way analysis of variance (ANOVA) and Dunnett’s post-test. Significance was accepted at P < 0.05.

hCTR V357A = biological target: T2, hCTR V357A (Homo sapiens, UniProt P30988, V357A)
T2 construct: c-Myc (N); expressed in transfected cells
T2 sequence (P30988 25-474 V357A): T1 sequence (P30988 25-474 E294A) with A270E, V333A
Procedure: as §1, §2

hCTR L298A = biological target: T3, hCTR L298A (Homo sapiens, UniProt P30988, L298A)
T3 construct: c-Myc (N); expressed in transfected cells
T3 sequence (P30988 25-474 L298A): T1 sequence (P30988 25-474 E294A) with A270E, L274A
Procedure: as §1, §2

hCTR K366A = biological target: T4, hCTR K366A (Homo sapiens, UniProt P30988, K366A)
T4 construct: c-Myc (N); expressed in transfected cells
T4 sequence (P30988 25-474 K366A): T1 sequence (P30988 25-474 E294A) with A270E, K342A
Procedure: as §1, §2

VLGKLSQELHKLQTYPRTNTGSGTP-NH2 [sCT(8-32)]
Ki (hCTR E294A): 0.263 nM
Ki (hCTR V357A): 0.209 nM
Ki (hCTR L298A): 0.148 nM
Ki (hCTR K366A): 0.195 nM
